Assay results published in patent publication US20230301909A1 (The University of Tokyo, priority 2020, published 2023).

System: human placenta
Test: Human placental perfusion model (ex vivo placental permeability)
Assay type: in vitro ADME
Conditions: FIG. 12A
Description: For this Example, the permeability of polymer micelles, low molecular compounds and polymers of different sizes through the human placenta was evaluated using a human placental perfusion model.
The human placental perfusion model was created according to NPL 4 (K. Shintaku et. al., Drug Metab. Dispos. 37 (2009) 962) and NPL 5 (J. R. Huston et. al., Clin, Pharmacol. Ther, 90 (2011) 67). […] DACH-platin encapsulating micelles (30 nm and 70 nm particle sizes) (DACH-platin dose: 85.4 mg/L), oxaliplatin (2.7 mg/L.) and Cy3-labeled 8-arm PEG (fluorescence intensity: 3,000 (RFU)) were perfused for 60 minutes, and 1 ml of each solution was recovered every 5 minutes from the vein on the fetus side. The platinum contents of the recovered samples from the oxaliplatin-and DACH-platin encapsulating micelle-administered groups were measured by inductively coupled […] mass spectrometry. The fluorescence intensities of the polymers were quantified by HPLC. […]
The human placental perfusion model was created according to NPL 4 (K. Shintaku et. al., Drug Metab. Dispos. 37 (2009) 962) and NPL 5 (J. R. Huston et. al., Clin. Pharmacol. Ther. 90 (2011) 67). […] The pH of the recovered sample was adjusted, releasing the nicotinamide, and the nicotinamide in the solution was measured by HPLC (detector: EXTREMA by JASCO Corp., column: TSKgel ODS-120H by Tosoh Corp., 1.9 μm). […]

SMILES: O=C1[O][Pt]2([NH][C@@H]3CCCC[C@H]3[NH]2)[O]C1=O [oxaliplatin]
- accumulation in the placenta (human placental perfusion): accumulation of oxaliplatin in the placenta
- permeation through the placenta (perfused for 60 minutes, fetus-side vein samples): permeated the placenta
